The subject of one experiment is Pa44 (WT Pa). In words: MIC, broth microdilution (Example 3), Table 1. It counts as cell-based. Particulars: Pseudomonas aeruginosa, CAMHB. The protocol:
(§1) To prepare for MIC testing, individual colonies were isolated by streaking frozen glycerol material containing Staphylococcus or Pseudomonas spp. onto rich, non-selective, tryptic soy agar containing 5% sheep's blood (TSAB), and incubated at 37° C. for 18-24 hrs.
(§2) On the day of testing, primary cultures were started by scraping off 5-10 colonies from the TSAB plates. The material was suspended in ˜5 mL of cation adjusted Mueller Hinton Broth (CAMHB) in 14 mL culture tubes and incubated at 37° C. with aeration (200 rpm) for ˜2 hrs until the OD600 was ≧0.1.
(§3) Inoculum cultures were prepared by standardizing the primary cultures to OD600=0.1 and then adding 20 μL of the adjusted primary culture per 1 mL CAMHB for Pseudomonas and CAMHB plus 4% NaCl for MRSA so that the final inoculum density was ˜10^5 colony forming units per milliliter. Diluted inoculum cultures were used to inoculate 50 μL per well in 96 well broth microdilution assay plates. 50 μL of CAMHB that contained compound concentrations ranging from 64-0.06 μg/mL in two-fold dilutions was also added to the broth microdilution assay plates for a final volume 100 μL per well, therefore final culture OD600 was approximately 0.001 and the final NaCl concentration for the MRSA strain was 2%.
(§4) Plates were incubated for 18-20 hours at 37° C. with aeration (200 rpm). Following incubation, growth was confirmed visually placing plates over a viewing apparatus (stand with a mirror underneath) and then OD600 was measured using a SpectraMax 340PC384 plate reader (Molecular Devices, Sunnyvale, Calif.). Growth was defined as turbidity that could be detected with the naked eye or achieving minimum OD600 of 0.1. MIC values were defined as the lowest concentration producing no visible turbidity.
On the technique in general: Broth dilution looks for growth in wells or tubes with falling amounts of substance.

In the next experiment the test system is Sa399 (MRSA). The experiment is described as follows: MIC, broth microdilution (Example 3), Table 1. The following applies: Staphylococcus aureus, CAMHB, final 2% NaCl. It counts as cell-based. The method, then:
as §1, §2, §3, §4

The subject of experiment [1] is Pseudomonas aeruginosa (n = 100). The experiment is described as follows: MIC90, expanded MIC panel (Table 4). It counts as cell-based. Particulars: 100 Pa strains. The protocol:
(§5) II. […] MIC90 values were defined as the concentration required to inhibit growth of 90% of the strains tested. • C. SAR was performed using the following isolates: Sa399 (ATCC43300, MRSA), Sa1721 (NARSA NRS384, MRSA USA 300), Pa44 (ATCC27853), and 4 clinical isolates (Pa2241, Pa2086 (mucoid strain), Pa2694 and Pa2698). • D. The in vitro antibacterial activity of the compound of formula (I) was further evaluated in an expanded MRSA and Pa MIC panel (see Table 4 and FIG. 6).

Experiment [2] relates to MRSA #712. The experiment is described as follows: Mouse septicemia (systemic infection), PD50. Type of experiment: in vivo, Staphylococcus aureus. Particulars: CD-1 mice, IP inoculum, 2 SC doses at 1 and 6 hrs, 7 day survival. The method, then:
(§6) In vivo efficacy of (I) was evaluated against strains of MRSA, and ceftazidime-resistant Pa and Klebsiella pneumonia (Kpn) in mouse septicemia, thigh and lung infections. Septicemia: CD-1 mice received lethal bacterial inocula IP, followed by 2 doses of antibiotics SC at 1 and 6 hrs post-inoculation. Dose calculated to protect 50% of the mice (PD50) was derived based on probit analysis of percentage survival. Thigh and lung infections: Thighs or lungs of neutropenic mice were inoculated with MRSA or Pa. Two treatment doses were given SC at 1 and 6 hrs post-inoculation. Tissues were harvested at ˜24 hrs post-inoculation and bacterial burdens quantified.
II. […] MIC was determined in MHB by standard CLSI microdilution. […] The survival of animals was recorded daily for 7 days. The antibiotic dose calculated to protect 50% of the mice (PD50) was derived based on probit analysis of percentage survival. • E. Mouse Thigh and Lung Infections: Mice were rendered neutropenic by two IP injections of cyclophosphamide 4 days (150 mg/kg) and 1 day (100 mg/kg) before bacterial inoculation. […] Tissue bacterial burdens were quantified by serial dilution and spiral plating of homogenates.
III. […] The dose that protected 50% of the mice (PD50) was calculated by probit analysis based on percentage of mice surviving for 7 days post-inoculation. • C. […]

The test system of experiment [3] is MRSA #712. The experiment is described as follows: Thigh infection in neutropenic mice. It counts as in vivo, Staphylococcus aureus. The method, then:
as §6
II. Methods • A. Animals: Six week-old, specific pathogen free, female CD-1 mice purchased from Charles River Laboratories (Wilmington, Mass.) were used for all studies after acclimation in Cubist animal facility. All animal procedures were approved by the Cubist Institutional Animal Care and Use Committee. • B. Bacteria and In Vitro Susceptibility Testing: MRSA #712, Pseudomonas aeruginosa #2245 and #2545, and Klebsiella pneumoniae #573 are clinical isolates; Pseudomonas aeruginosa #44 is an ATCC strain (ATCC#27853). MIC was determined in MHB by standard CLSI microdilution. […] The survival of animals was recorded daily for 7 days. The antibiotic dose calculated to protect 50% of the mice (PD50) was derived based on probit analysis of percentage survival. • E. Mouse Thigh and Lung Infections: Mice were rendered neutropenic by two IP injections of cyclophosphamide 4 days (150 mg/kg) and 1 day (100 mg/kg) before bacterial inoculation. […] Tissue bacterial burdens were quantified by serial dilution and spiral plating of homogenates.

In the next experiment the test system is MRSA (n = 21). In words: MIC90, expanded MIC panel (Table 4). Particulars: Staphylococcus aureus, MRSA, read-out: MIC90 MRSA (n = 21). It counts as cell-based. The method, then:
as §5

The test system of experiment [4] is MRSA #712. The experiment is described as follows: MIC in MHB by standard CLSI microdilution (Example 4). Type of experiment: cell-based. The following applies: Staphylococcus aureus, MRSA. From the text: II. Methods • A. Animals: Six week-old, specific pathogen free, female CD-1 mice purchased from Charles River Laboratories (Wilmington, Mass.) were used for all studies after acclimation in Cubist animal facility. All animal procedures were approved by the Cubist Institutional Animal Care and Use Committee. • B. Bacteria and In Vitro Susceptibility Testing: MRSA #712, Pseudomonas aeruginosa #2245 and #2545, and Klebsiella pneumoniae #573 are clinical isolates; Pseudomonas aeruginosa #44 is an ATCC strain (ATCC#27853). MIC was determined in MHB by standard CLSI microdilution. Comparator Antibiotics Used in Animal Studies: Vancomycin hydrochloride USP was purchased from Hospira (Lake Forest, Ill.); ceftazidime hydrate from Sigma; Primaxin (imipenem and cilastatin) from Merck; ceftaroline was synthesized at a CRO. • D. Mouse Septicemia: Mice received lethal inocula of bacteria in 6% hog gastric mucin intraperitoneally (IP), followed by two treatment doses of antibiotics via subcutaneous (SC) administration at 1 and 6 hrs post-inoculation. The survival of animals was recorded daily for 7 days. The antibiotic dose calculated to protect 50% of the mice (PD50) was derived based on probit analysis of percentage survival. • E. Mouse Thigh and Lung Infections: Mice were rendered neutropenic by two IP injections of cyclophosphamide 4 days (150 mg/kg) and 1 day (100 mg/kg) before bacterial inoculation. Thigh or lung infection was induced by an intramuscular injection of 0.2 mL or intranasal inoculation of 0.1 mL inoculum preparation from an overnight bacterial culture into left thigh or nares. Tissues from one group of mice receiving no treatment (No Rx) were harvested at 1 hr for determination of baseline of bacterial burden. The remaining mice received two treatment doses of vehicles or antibiotics given SC at 1 and 6 hrs post-inoculation. Tissues from the treated mice were harvested at ˜24 hrs post-inoculation. Tissue bacterial burdens were quantified by serial dilution and spiral plating of homogenates.

The results in this text go back to US8809314B1, “Cephalosporin compound” (Cubist Pharmaceuticals, Inc., priority 2012, dated 2014).

Converted amounts (≈) assume the structure as drawn. Structures can show the parent of a compound that is named as a salt. Some results are limits rather than exact numbers.

One may read the MIC as the lowest concentration found to suppress growth. High values mean weaker potency, low ones greater potency. For the compound `CO/N=C(\C(=O)N[C@@H]1C(=O)N2C(C(=O)[O-])=C(C[n+]3ccc(CNC(=O)c4ccccc4)cc3)CS[C@H]12)c1nc(N)sc1Cl` [Compound 1-2], the MIC was above 16 µg/mL in the experiment on Pa44 (WT Pa) and at most 4 µg/mL in the experiment on Sa399 (MRSA).
As to `CCCc1ccc(C(=O)NCc2cc[n+](CC3=C(C(=O)[O-])N4C(=O)[C@@H](NC(=O)/C(=N\OC)c5nc(N)sc5Cl)[C@H]4SC3)cc2)cc1` [Compound 1-3], the MIC against Pa44 (WT Pa) is above 16 µg/mL; against Sa399 (MRSA), 8 to 16 µg/mL (≈ 11.7 to 23.4 µM).
Turning to `CO/N=C(\C(=O)N[C@@H]1C(=O)N2C(C(=O)[O-])=C(C[n+]3ccc(CNC(=O)c4cccc(CCNC(=O)C(F)(F)F)c4)cc3)CS[C@H]12)c1nc(N)sc1Cl` [Compound 1-4], the results for the minimum inhibitory concentration (MIC) in the experiment with Pa44 (WT Pa) and against Sa399 (MRSA) were above 16 µg/mL and 8 to 16 µg/mL (≈ 10.2 to 20.5 µM), respectively.
Broadly, the MIC90 is an inhibitory concentration at the 90% level, which refers to growth in some studies and to a panel of isolates in others. The compound `C[C@@H](O)[C@H]1C(=O)N2C(C(=O)O)=C(S[C@@H]3CN[C@H](C(=O)N(C)C)C3)[C@H](C)[C@H]12` [Meropenem] registered an MIC90 in experiment [1] of 4 µg/mL (≈ 10.4 µM).
In the case of `CN[C@H](CC(C)C)C(=O)N[C@H]1C(=O)N[C@@H](CC(N)=O)C(=O)N[C@H]2C(=O)N[C@H]3C(=O)N[C@H](C(=O)N[C@H](C(=O)O)c4cc(O)cc(O)c4-c4cc3ccc4O)[C@H](O)c3ccc(c(Cl)c3)Oc3cc2cc(c3O[C@@H]2O[C@H](CO)[C@@H](O)[C@H](O)[C@H]2O[C@H]2C[C@](C)(N)[C@H](O)[C@H](C)O2)Oc2ccc(cc2Cl)[C@H]1O` [Vancomycin, Vancomycin hydrochloride], the “Septicemia PD50 (± SE)” value in the experiment on MRSA #712 [2] was 2.0 ± 1.3 mg/kg. Also, in the experiment with MRSA #712 [3] (MRSA #712 thigh infection, neutropenic mice, 2 SC doses at 1 and 6 hrs, 24 h, vs vehicle), the “Thigh (T) ED−2log” value is listed as >110 (T) mg/kg. In addition, the “reduction in bacterial CFU” value in the experiment on MRSA #712 [3] (MRSA #712 thigh, 110 mg/kg SC) is listed as around 1.5 log. For the same compound, in the experiment with MRSA (n = 21), the MIC90 amounted to 1 µg/mL. The same compound came in with an MIC with MRSA #712 [4] of 1 µg/mL.
